Test system: corn leaf
Test: Dark induced senescence of corn leaf (leaf discs)
Assay type: cell-based, Corn (variety Multitop)
Conditions: 23° C., 8 days, 0.5% DMSO, image analysis, lower value = higher senescence induction potency; for IC50: Zea mays, foliar, 192 h, read-out: IC50 (concentration at which 50% senescence was achieved)
Method: It is known that strigolactones regulate (accelerate) leaf senescence, potentially through D14 receptor signaling. Compounds of the present invention (I) were compared to structurally-related compounds (Z) in a corn leaf dark induced senescence assay. Corn plants of variety Multitop were grown in a greenhouse with relative 75% humidity and at 23-25° C. for 6 weeks. 1.4 cm diameter leaf discs were placed into 24-well plates containing a test compounds in a concentration gradient (100 μM-0.0001 μM) at a final concentration of 0.5% DMSO. Each concentration was tested in 12 replicates. Plates were sealed with seal foil. The foil was pierced to provide gas exchange in each well. The plates were placed into the completely dark climatic chamber. Plates were incubated in the chamber with 75% humidity and at 23° C. for 8 days. On days 0, 5, 6, 7 and 8 photographs were taken of each plate, and image analysis conducted with a macro developed using the ImageJ software. The image analysis was used to determine the concentration at which 50% senescence was achieved (IC50), see Table 7. The lower the value, the higher senescence induction potency.

| SMILES | IC50 [nM] | IC50 (concentration at which 50% senescence was achieved) |
| --- | --- | --- |
| CC1=CC(O/C=C2/C(=O)N(CC#N)C3Cc4ccccc4C23)OC1=O (stereo not shown) [Compound I-12-E, 2-[(1E)-1-[(4-methyl-5-oxo-2H-furan-2-yl)oxymethylene]-2-oxo-4,8b-dihydro-3aH-indeno[2,1-b]pyrrol-3-yl]acetonitrile] | 1550 |  |
| CC(=O)N1C(=O)/C(=C/OC2OC(=O)C(C)=C2C)C2Cc3ccccc3C21 (stereo not shown) [Compound Z1-Me, reference compound] | 30 |  |
| CC1=C(C)C(O/C=C2/C(=O)N(c3nccs3)C3c4ccccc4CC23)OC1=O (stereo not shown) [Compound Z2-Me, reference compound] |  | inactive |
| CC1=CC(O/C=C2/C(=O)N(CC#N)C3c4ccccc4CC23)OC1=O (stereo not shown) [Compound Z4-E, reference compound] | 3710 |  |

Second part, the compound after the results:

| IC50 [nM] | IC50 (concentration at which 50% senescence was achieved) | SMILES |
| --- | --- | --- |
| 64 |  | CC(=O)N1C(=O)/C(=C/OC2C=C(C)C(=O)O2)C2c3ccccc3CC21 (stereo not shown) [Compound I-1, (1E)-3-acetyl-1-[(4-methyl-5-oxo-2H-furan-2-yl)oxymethylene]-4,8b-dihydro-3aH-indeno[2,1-b]pyrrol-2-one] |
| 24 |  | CC(=O)N1C(=O)/C(=C/OC2OC(=O)C(C)=C2C)C2c3ccccc3CC21 (stereo not shown) [Compound I-5, (1E)-3-acetyl-1-[(3,4-dimethyl-5-oxo-2H-furan-2-yl)oxymethylene]-4,8b-dihydro-3aH-indeno[2,1-b]pyrrol-2-one] |
| 126 |  | CC1=CC(O/C=C2/C(=O)N(c3nccs3)C3Cc4ccccc4C23)OC1=O (stereo not shown) [Compound I-9, (1E)-1-[(4-methyl-5-oxo-2H-furan-2-yl)oxymethylene]-3-thiazol-2-yl-4,8b-dihydro-3aH-indeno[2,1-b]pyrrol-2-one] |
| 107 |  | CC1=CC(O/C=C2/C(=O)N(c3ccccc3)C3Cc4ccccc4C23)OC1=O (stereo not shown) [Compound I-10, (1E)-1-[(4-methyl-5-oxo-2H-furan-2-yl)oxymethylene]-3-phenyl-4,8b-dihydro-3aH-indeno[2,1-b]pyrrol-2-one] |
| 11.1 |  | CC1=C(C)C(O/C=C2/C(=O)N(c3nccs3)C3Cc4ccccc4C23)OC1=O (stereo not shown) [Compound I-13, (1E)-1-[(3,4-dimethyl-5-oxo-2H-furan-2-yl)oxymethylene]-3-thiazol-2-yl-4,8b-dihydro-3aH-indeno[2,1-b]pyrrol-2-one] |
| 990 |  | CC(=O)N1C(=O)/C(=C/OC2OC(=O)C(C)=C2C)C2c3ccccc3OC21 (stereo not shown) [Compound I-25] |
| 110 |  | CC(=O)N1C(=O)/C(=C/OC2C=C(C)C(=O)O2)C2Cc3ccccc3C21 (stereo not shown) [Compound Z1, reference compound] |
|  | inactive | CC1=CC(O/C=C2/C(=O)N(c3nccs3)C3c4ccccc4CC23)OC1=O (stereo not shown) [Compound Z2, reference compound] |
| 2470 |  | CC1=CC(O/C=C2/C(=O)N(c3ccccc3)C3c4ccccc4CC23)OC1=O (stereo not shown) [Compound Z3, reference compound] |
